Series [1] has as its system JAK2V617F PV/MF mouse model. The experiment in a line: JAK2V617F PV/MF mouse model, 14 consecutive days oral dosing (Example 3). Conditions: ruxolitinib 60 mg/kg BID, Compound A 75 mg/kg QD, 14 days; for body weight change: FIG. 4A; for bone marrow cellularity / bone marrow toxicity: FIG. 4B; for WBC count: FIG. 4C; for platelet count: FIG. 4D; for elevated hematocrit / splenomegaly: vs vehicle; for elevated hematocrit: FIG. 3A; for splenomegaly: FIG. 3B. The source says:
For treatment studies, bone marrow (BM) from primary Jak2V617F Vav-Cre CD45.2 mice was mixed 1:1 with Jak2 wild-type CD45.1 BM and transplanted into lethally irradiated CD45.1 recipients. Development of the MPN phenotype was confirmed by peripheral blood counts 2 months after BM transplantation. Mice were randomized to treatment groups according to blood counts and treated by oral gavage for 1-4 weeks.

A further series relates to Jak2V617F mice. The experiment in a line: Jak2V617F knock-in mouse model (polycythemia vera phenotype), competitive BM transplant. It counts as in vivo. The note with it: for reduction of hematocrit: Example 4, FIG. 5B.
For series [2], the system named is CD34+ peripheral blood mononuclear cells (PBMCs) of a MF patient. The experiment in a line: Colony growth from CD34+ PBMCs of a MF patient. It counts as cell-based, human. The note with it: FIG. 5A.
Another series deals with MPLW515L mice. The experiment in a line: MPLW515L mutant MPN mouse model. It counts as in vivo. Conditions: oral gavage, FIG. 2D.
The subject of series [3] is Ba/F3 cell line stably expressing erythropoietin receptor (EpoR) and wild-type JAK2. The experiment in a line: Antiproliferative activity, CellTiter-Glo viability assay at 48h, Ba/F3 EpoR wild-type JAK2. Conditions: EpoR Jak2 wild type Ba/F3 cells; FIG. 6. The class given is cell-based, murine. The protocol:
(§1) To assess anti-proliferative effects of inhibitors, cells were seeded at 10′000/200 ul with increasing inhibitor concentrations in triplicate. Proliferation was assessed at 48h using the CellTiter-Glo viability assay (Promega) and normalized to cell growth in medium with equivalent volume of DMSO.
Background: ATP-based viability assays read luminescence as a measure of living cells.

Series [4] has as its system ERK downstream targets RSK3 and DUSP6. The experiment in a line: ERK signaling in splenocytes of Jak2V617F mice by Western blot. The class given is in vivo, mouse. The note with it: FIG. 2A. (In general: Immunoblotting shows a protein as a band on a membrane.)
In series [5] the test system is Ba/F3 cell line stably expressing erythropoietin receptor (EpoR) and Jak2V617F. The experiment in a line: Antiproliferative activity, CellTiter-Glo viability assay at 48h, Ba/F3 EpoR Jak2V617F. The class given is cell-based, murine. Conditions: EpoR Jak2V617F mutant Ba/F3 cells; FIG. 6. As to the method: as §1

Entries after “also recorded” stand apart in the source; their conditions may differ.

Regarding `N#CC[C@H](C1CCCC1)n1cc(-c2ncnc3[nH]ccc23)cn1` [ruxolitinib, (R)-3-(4-(7H-pyrrolo[2,3-d]pyrimidin-4-yl)-1H-pyrazol-1-yl)-3-cyclopentylpropanenitrile, reference compound], in series [1], the polycythemia result is recorded as “significantly normalized”, the tolerability result was “well tolerated”, the body weight change result is “lack of body weight loss” and the “bone marrow cellularity / bone marrow toxicity” value is recorded as “absence of bone marrow toxicity”. In addition, in series [1], the WBC count entry is given as “normal”, the platelet count entry is listed as “normal; also recorded: absence of thrombocytopenia”, the elevated hematocrit result is “significantly normalized” and the splenomegaly result is reported as “significantly normalized”. In series [1] (listed as Ruxolitinib), the elevated hematocrit result was “significantly reduced” and the splenomegaly result was “significantly reduced”. In addition, the reduction of hematocrit result in the series with Jak2V617F mice was “comparable reduction”. For the same compound, the “growth of colonies derived from CD34+ PBMCs” value in series [2] is reported as “comparably suppressed growth”. Also, the “correction of leukocytosis (WBC count)” value with MPLW515L mice was “superior to that of Compound A”.
On to `CNC[C@@H](NC(=O)c1ccc(-c2nc([C@H]3CC[C@H](O)[C@@H](F)C3)cnc2N)cc1F)c1cc(F)cc(Br)c1` [Compound A, 4-(3-amino-6-((1S,3S,4S)-3-fluoro-4-hydroxycyclohexyl)pyrazin-2-yl)-N-((S)-1-(3-bromo-5-fluorophenyl)-2-(methylamino)ethyl)-2-fluorobenzamide], for which, in series [1], the polycythemia entry was “significantly normalizes”, the tolerability entry is “well tolerated”, the body weight change result was “lack of body weight loss” and the “bone marrow cellularity / bone marrow toxicity” value is reported as “absence of bone marrow toxicity”. Further, in series [1], the WBC count result is given as “normal”, the platelet count entry is reported as “normal; also recorded: absence of thrombocytopenia”, the elevated hematocrit entry is on record as “significantly normalized; also recorded: significantly reduced; also recorded: reduces” and the splenomegaly entry is “significantly normalizes; also recorded: significantly reduced”. Also, the “suppression of proliferation (decrease in IC50 value)” value in series [3] is “ruxolitinib was superior to that of Compound A”. The “activation of ERK downstream targets RSK3 and DUSP6” value in series [4] is on record as “inhibited activation”. The reduction of hematocrit entry in the series on Jak2V617F mice is given as “comparable reduction”. Further, the “polyglobulia or polycythemia (hematocrit levels)” value in the series on Jak2V617F mice (oral gavage, FIG. 2B) is recorded as “potently corrected”. The “splenomegaly (spleen weight)” value in the series on Jak2V617F mice (oral gavage, FIG. 2C) was “potently corrected”. The “growth of colonies derived from CD34+ PBMCs” value in series [2] is “comparably suppressed growth”. Further, in the series on MPLW515L mice, the “correction of leukocytosis (WBC count)” value is recorded as “ruxolitinib was superior to that of Compound A”. Also, in series [5], the “suppression of proliferation (decrease in IC50 value)” value is on record as “ruxolitinib was superior to that of Compound A”.
